Laboratory results as given in ChEMBL document CHEMBL5726255, “Biaryl acyl-sulfonamide compounds as sodium channel inhibitors” (2017).

How the values were obtained:
[1] = molecular target: Sodium channel protein type 9 subunit alpha (Homo sapiens, UniProt Q15858); assay: Nav 1.7 In Vitro Patch Express (PX) Assay: HEK 293 cells stably transfected with human Nav1.7 were recorded in whole cell voltage clamp mode with the PatchXpress automated electrophysiology system (Molecular Devices, LLC, Sunnyvale, Calif.). Compound effects were measured on a partially inactivated state of the sodium channel. Cells were clamped to a holding potential yielding 20 to 50% inactivation. To elicit sodium current, channels were activated by pulsing to −10 mV for 20 msec. This voltage protocol was repeated at a rate of 0.1 Hz throughout the experiment. A single concentration of test compound was applied to cells for a duration of 3 minutes. Peak sodium current was measured at the end of the compound addition period to determine percent inhibition. Three to five cells were tested per concentration, and IC50 curves were fitted to percent inhibition as a function of concentration.
Chain of Sodium channel protein type 9 subunit alpha (Q15858 whole entry): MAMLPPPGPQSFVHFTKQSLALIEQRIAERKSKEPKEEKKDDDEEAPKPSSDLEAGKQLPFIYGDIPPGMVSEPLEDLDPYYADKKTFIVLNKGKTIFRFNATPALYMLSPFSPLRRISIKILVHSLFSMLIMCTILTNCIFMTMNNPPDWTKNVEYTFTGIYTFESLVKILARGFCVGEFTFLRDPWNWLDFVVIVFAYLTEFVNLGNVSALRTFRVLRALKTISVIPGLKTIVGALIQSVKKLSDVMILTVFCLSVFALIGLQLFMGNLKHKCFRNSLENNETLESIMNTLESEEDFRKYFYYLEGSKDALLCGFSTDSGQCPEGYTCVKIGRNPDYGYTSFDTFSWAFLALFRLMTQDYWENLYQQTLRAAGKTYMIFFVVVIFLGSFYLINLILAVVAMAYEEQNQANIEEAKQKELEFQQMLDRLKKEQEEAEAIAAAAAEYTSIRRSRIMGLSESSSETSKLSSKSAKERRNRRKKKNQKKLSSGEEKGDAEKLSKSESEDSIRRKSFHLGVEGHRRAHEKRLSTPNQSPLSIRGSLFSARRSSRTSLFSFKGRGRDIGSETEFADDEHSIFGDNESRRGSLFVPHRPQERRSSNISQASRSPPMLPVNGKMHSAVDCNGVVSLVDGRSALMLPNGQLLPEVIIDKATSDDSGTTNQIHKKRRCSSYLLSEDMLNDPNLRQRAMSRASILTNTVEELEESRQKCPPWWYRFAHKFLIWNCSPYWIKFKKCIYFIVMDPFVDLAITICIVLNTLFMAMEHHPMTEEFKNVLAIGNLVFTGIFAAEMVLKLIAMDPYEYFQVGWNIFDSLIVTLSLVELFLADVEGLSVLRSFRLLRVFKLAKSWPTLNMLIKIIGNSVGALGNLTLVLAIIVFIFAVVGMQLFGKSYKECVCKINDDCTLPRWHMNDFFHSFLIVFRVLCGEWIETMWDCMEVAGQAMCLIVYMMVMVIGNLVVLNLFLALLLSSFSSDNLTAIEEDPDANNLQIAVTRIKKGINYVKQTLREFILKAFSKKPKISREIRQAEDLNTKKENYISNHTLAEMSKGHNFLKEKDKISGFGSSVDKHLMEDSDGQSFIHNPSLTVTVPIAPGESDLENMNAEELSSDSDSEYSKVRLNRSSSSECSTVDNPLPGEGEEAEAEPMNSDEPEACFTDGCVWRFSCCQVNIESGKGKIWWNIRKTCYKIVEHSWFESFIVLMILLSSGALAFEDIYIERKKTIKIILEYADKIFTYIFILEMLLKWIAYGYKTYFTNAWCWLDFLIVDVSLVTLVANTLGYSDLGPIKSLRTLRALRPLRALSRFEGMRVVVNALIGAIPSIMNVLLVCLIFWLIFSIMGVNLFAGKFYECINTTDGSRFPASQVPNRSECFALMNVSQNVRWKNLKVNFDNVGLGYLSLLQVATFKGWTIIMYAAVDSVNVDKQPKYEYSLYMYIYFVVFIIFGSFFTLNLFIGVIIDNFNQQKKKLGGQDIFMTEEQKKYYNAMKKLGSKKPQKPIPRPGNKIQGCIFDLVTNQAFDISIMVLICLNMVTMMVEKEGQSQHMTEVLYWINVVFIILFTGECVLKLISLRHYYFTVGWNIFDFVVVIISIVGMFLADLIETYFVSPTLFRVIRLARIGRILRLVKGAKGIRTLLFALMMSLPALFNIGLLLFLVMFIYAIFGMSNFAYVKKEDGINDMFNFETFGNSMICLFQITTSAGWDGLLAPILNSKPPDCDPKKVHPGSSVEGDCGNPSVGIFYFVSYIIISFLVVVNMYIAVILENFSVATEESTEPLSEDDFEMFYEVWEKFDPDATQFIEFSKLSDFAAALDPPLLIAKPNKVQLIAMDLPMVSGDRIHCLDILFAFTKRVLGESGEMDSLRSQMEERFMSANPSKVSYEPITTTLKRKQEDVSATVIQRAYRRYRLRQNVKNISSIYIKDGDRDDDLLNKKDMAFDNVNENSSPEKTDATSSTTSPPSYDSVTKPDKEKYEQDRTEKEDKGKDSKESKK

[2] = molecular target: Sodium channel protein type 5 subunit alpha (Homo sapiens, UniProt Q14524); assay: Nav 1.5 In Vitro PX Assay: 293 cells stably transfected with human Nav 1.5 were recorded in whole cell voltage clamp mode with the PatchXpress automated electrophysiology system according the manufacturer's specifications (Molecular Devices, LLC, Sunnyvale, Calif.). Cells were held at a holding potential of −50 mV to inactivate sodium channels. To elicit sodium currents the voltage was changed to …
Chain of Sodium channel protein type 5 subunit alpha (Q14524 whole entry): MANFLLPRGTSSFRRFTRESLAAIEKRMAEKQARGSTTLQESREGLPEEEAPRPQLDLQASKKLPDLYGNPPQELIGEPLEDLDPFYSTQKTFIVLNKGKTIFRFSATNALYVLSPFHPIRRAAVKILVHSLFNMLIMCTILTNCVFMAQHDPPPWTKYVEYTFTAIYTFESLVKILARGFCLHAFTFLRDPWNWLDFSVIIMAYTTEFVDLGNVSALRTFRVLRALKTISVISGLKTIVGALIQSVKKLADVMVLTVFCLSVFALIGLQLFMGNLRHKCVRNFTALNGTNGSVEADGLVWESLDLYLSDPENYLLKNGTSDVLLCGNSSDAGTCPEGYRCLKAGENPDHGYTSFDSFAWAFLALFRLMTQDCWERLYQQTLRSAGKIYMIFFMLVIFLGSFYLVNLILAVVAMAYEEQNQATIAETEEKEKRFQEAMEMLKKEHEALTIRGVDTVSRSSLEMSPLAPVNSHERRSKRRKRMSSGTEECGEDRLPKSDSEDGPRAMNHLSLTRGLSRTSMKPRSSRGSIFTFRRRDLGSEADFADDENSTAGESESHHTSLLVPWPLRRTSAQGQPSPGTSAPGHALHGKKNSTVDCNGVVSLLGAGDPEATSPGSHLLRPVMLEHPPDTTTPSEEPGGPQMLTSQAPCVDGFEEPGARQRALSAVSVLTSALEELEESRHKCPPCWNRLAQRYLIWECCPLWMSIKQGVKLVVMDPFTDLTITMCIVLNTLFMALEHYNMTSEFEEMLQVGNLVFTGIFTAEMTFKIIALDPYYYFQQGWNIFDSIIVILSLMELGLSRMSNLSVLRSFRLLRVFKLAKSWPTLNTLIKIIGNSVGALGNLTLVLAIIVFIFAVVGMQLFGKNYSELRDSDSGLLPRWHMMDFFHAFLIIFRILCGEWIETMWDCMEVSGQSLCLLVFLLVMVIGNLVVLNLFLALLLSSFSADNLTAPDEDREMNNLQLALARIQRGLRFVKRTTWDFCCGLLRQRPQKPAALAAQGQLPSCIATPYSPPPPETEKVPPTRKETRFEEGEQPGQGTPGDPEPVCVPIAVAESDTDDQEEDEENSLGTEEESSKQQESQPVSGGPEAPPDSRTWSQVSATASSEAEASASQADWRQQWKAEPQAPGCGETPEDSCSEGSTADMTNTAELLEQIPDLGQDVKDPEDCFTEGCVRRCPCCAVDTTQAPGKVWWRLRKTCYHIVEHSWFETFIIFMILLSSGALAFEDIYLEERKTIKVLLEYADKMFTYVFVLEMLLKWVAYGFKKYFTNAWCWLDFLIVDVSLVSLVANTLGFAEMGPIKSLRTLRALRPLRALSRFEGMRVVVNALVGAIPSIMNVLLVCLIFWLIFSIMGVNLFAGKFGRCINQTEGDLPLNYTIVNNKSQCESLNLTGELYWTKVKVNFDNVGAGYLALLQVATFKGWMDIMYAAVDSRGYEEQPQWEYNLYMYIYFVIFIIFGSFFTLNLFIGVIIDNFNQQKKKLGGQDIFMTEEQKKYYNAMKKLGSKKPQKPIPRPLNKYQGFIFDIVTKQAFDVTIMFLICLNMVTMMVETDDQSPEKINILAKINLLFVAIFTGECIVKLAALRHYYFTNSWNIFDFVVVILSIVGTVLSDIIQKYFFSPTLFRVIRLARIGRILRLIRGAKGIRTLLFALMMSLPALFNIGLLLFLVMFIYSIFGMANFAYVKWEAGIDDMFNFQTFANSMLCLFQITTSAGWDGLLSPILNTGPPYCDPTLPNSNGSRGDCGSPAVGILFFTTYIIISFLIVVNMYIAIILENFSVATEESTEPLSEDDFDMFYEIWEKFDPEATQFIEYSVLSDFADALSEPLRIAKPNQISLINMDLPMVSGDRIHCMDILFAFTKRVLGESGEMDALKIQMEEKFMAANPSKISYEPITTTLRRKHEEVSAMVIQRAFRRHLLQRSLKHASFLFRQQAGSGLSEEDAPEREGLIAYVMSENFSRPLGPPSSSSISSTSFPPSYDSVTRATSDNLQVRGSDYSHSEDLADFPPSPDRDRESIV
Description: Nav 1.5 In Vitro PX Assay: 293 cells stably transfected with human Nav 1.5 were recorded in whole cell voltage clamp mode with the PatchXpress automated electrophysiology system according the manufacturer's specifications (Molecular Devices, LLC, Sunnyvale, Calif.). Cells were held at a holding potential of −50 mV to inactivate sodium channels. To elicit sodium currents the voltage was changed to −120 mV to recover a portion of the channels, followed by delivery of test pulses of 20 msec duration to 0 mV, at 0.1 Hz. A single concentration of test compound was applied to cells for a duration of 5 minutes. Peak sodium current was measured at the end of the compound addition period to determine percent inhibition. A minimum of two cells were tested per concentration.

| SMILES | IC50 [1] [nM] | IC50 [2] [nM] |
| --- | --- | --- |
| COc1cc(C(=O)NS(C)(=O)=O)ccc1-c1cnc(Oc2c(Cl)ccc(Cl)c2C)c(C#N)c1 | 17.2 | – |
| Cc1cc(C(=O)NS(C)(=O)=O)c(F)cc1-c1cnc(O[C@H](C)c2cc(Cl)ccc2Cl)c(Cl)c1 | 46.2 | – |
| Cc1cc(C(=O)NS(=O)(=O)C2CCC2)c(F)cc1-c1cnc(OC2CCC2)c(Cl)c1 | 73.9 | > 4900 |
| CC(C)COc1ncc(-c2cc(F)c(C(=O)NS(C)(=O)=O)cc2F)cc1Br | 559 | – |
| CS(=O)(=O)NC(=O)c1cc(F)c(-c2cnc(Oc3ccc(F)c4c3CCC4)c(Cl)c2)cc1F | 96.5 | – |
